# Reference: patent publication US10662359B2, “Heat transfer fluids and methods of using same” (3M INNOVATIVE PROPERTIES COMPANY, priority 2017, dated 2020)
# Tested on: rats
# Experiment: 4 hour acute inhalation toxicity in rats
# Type: in vivo
# Details: rats dosed at 10,000 or 619 ppm vol/vol in air for 4 hours, 14 day post-dose monitoring; LC-50 estimated, interpreted as highest exposure level tested
# Description: The 4 hour acute inhalation toxicity of Example 3 and CE2 in rats was determined by dosing animals at 10,000 or 619 ppm vol/vol in air (per Table 4) for 4 hours followed by 14 day post-dose monitoring. Based on the animal test results and the vapor concentration of the test compound, the LC-50 values were estimated. The NOEL (No Effect Level) value of CE3 was obtained from du Pont de Nemours trade literature. The 4 hr inhalation LC-50 value for CE4 was obtained from Solvay MSDS.
structure (smiles),measurement,value
"FC(=C(C(F)(F)F)C(F)(F)C(F)(F)C(F)(F)F)C(F)(C(F)(F)F)C(F)(F)F [Example 3, 1,1,1,2,3,5,5,6,6,7,7,7-dodecafluoro-2,4-bis(trifluoromethyl)hept-3-ene]",LC-50 (4 hr Inhalation in Rats),">10,000 ppmv"
